Data: article PMC3010440 (Journal of ethnopharmacology, 2010)
“And” between values parts separate entries of the source, which are not always exact repeats. Identical values can stand only once. Like-named read-outs stand apart in the source and are kept apart here.

Tests used:
Assay type in all cases: cell-based
[1] = system: Plasmodium falciparum D10; assay: Antiplasmodial pLDH assay, chloroquine-sensitive strain D10
[2] = system: Plasmodium falciparum Dd2; assay: Antiplasmodial pLDH assay, chloroquine-resistant strain Dd2; conditions: for Resistance index (RI): RI = IC50 Dd2 / IC50 D10
[3] = system: Chinese Hamster Ovarian (CHO) cell line; assay: Cytotoxicity MTT assay; conditions: for CHO Cell line (IC50) / IC50: triplicate; for Selectivity index (SI): SI = IC50 CHO / IC50 D10; for IC50: read-out: CHO Cell line (IC50)
[4] = Plasmodium falciparum, D10, read-out: Plasmodium falciparum D10 (IC50)
[5] = Plasmodium falciparum, DD2, read-out: Plasmodium falciparum Dd2: IC50
[6] = CQ-sensitive D10 strain, pLDH, triplicate, ten point dose response
[7] = read-out: Plasmodium falciparum D10 (IC50), CQ-sensitive D10 strain, pLDH, triplicate, ten point dose response
[8] = CQ-resistant Dd2 strain, pLDH, triplicate, ten point dose response
[9] = read-out: Plasmodium falciparum Dd2: IC50, CQ-resistant Dd2 strain, pLDH, triplicate, ten point dose response

| Molecule | IC50 [1, 4] | IC50 [2, 5] | Plasmodium falciparum D10 (IC50) [1, 6] [µg/mL] | IC50 [1, 7] [µM] | Plasmodium falciparum Dd2: IC50 [2, 8] [µg/mL] | Resistance index (RI) [2] | IC50 [2, 9] [µM] | Cytotoxicity (in words) [3] | CHO Cell line (IC50) ([3]; CHO cells, MTT) [µg/mL] | Selectivity index (SI) [3] | IC50 ([3]; CHO cells, MTT) [µM] | Cytotoxicity (in words) ([3]; CHO cells, MTT) |
| --- | --- | --- | --- | --- | --- | --- | --- | --- | --- | --- | --- | --- |
| CCN(CC)CCCC(C)Nc1ccnc2cc(Cl)ccc12 (stereo not drawn) [Chloroquine, Chloroquine diphosphate, reference compound] | 0.01 µg/mL and 30 nM | 0.07 µg/mL and 230 nM | – | – | – | – | – | – | – | – | – | – |
| O[C@@H]1c2ccccc2-c2c3c(cc4c2[C@@H]1NCC4)OCO3 [Compound 2, norushinsunine] | – | – | 29.6 ± 3.9 | 105 ± 13.9 | 30.9 ± 2.3 | 1.0 | 110 ± 8.1 | no observable cytotoxicity | > 100 | > 3 | > 300 | – |
| COc1cc2c(cc1OC)-c1c(OC)c(OC)cc3c1[C@H](C2)NCC3 [Compound 3, norglaucine] | – | – | 22.0 ± 2.8 | 64.4 ± 8.2 | 32.2 ± 1.3 | 1.5 | 94.3 ± 3.8 | – | > 100 | > 5 | > 300 | no observable cytotoxicity |
| O=C1c2ccccc2-c2c3c(cc4ccnc1c24)OCO3 [Compound 4, liriodenine] | 4.1 µg/mL and 14.9 µM | 7.9 µg/mL and 28.7 µM | – | – | – | 1.9 | – | – | – | 2.0 | – | – |
| c1ccc2c(c1)C[C@H]1NCCc3cc4c(c-2c31)OCO4 [Compound 5, anonaine] | 1.2 µg/mL and 4.5 µM | 5.2 µg/mL and 19.6 µM | – | – | – | 4.2 | – | – | – | > 83 | – | – |
| COc1cc2c(cc1OC)-c1c(OC)c(OC)cc3ccnc(c13)C2=O [Compound 6, oxoglaucine] | 9.1 µg/mL and 25.9 µM | 20.8 µg/mL and 59.2 µM | – | – | – | 2.3 | – | – | – | > 11 | – | no observable cytotoxicity |
| C=C1C(=O)O[C@H]2[C@H]1[C@H](OC(C)=O)CC(=C)[C@H](OO)CC[C@@]1(C)O[C@H]21 [Compound 7, peroxyferolide] | – | – | 6.2 ± 0.1 | 18.3 ± 0.3 | 4.3 ± 1.2 | 0.7 | 12.7 ± 3.5 | – | 3.2 ± 0.6 | 0.5 | 9.5 ± 1.8 | – |
| C=C1C(=O)O[C@@H]2C3O[C@]3(C)CC/C=C(\C)C[C@@H](OC(C)=O)[C@@H]12 (stereo partly drawn) [Compound 8, lipiferolide] | – | – | 1.8 ± 0.7 | 5.9 ± 2.3 | 2.3 ± 0.1 | 1.3 | 7.5 ± 0.3 | – | 1.4 ± 0.2 | 0.8 | 4.6 ± 0.7 | – |
| asimilobine [Compound 1] | – | – | 1.2 ± 0.1 | 4.5 ± 0.3 | 5.8 ± 1.3 | 4.8 | 21.7 ± 6.3 | – | > 100 | > 83 | > 300 | – |
